Assay in all cases: inhibition of tumour cell growth, NCI panel, 48 h
Test [1] concerns SF-268.
Test [2] deals with K562.
Test [3] concerns SNB-75.
Test [4] relates to NCI-H460.
In test [5] the test system is HOP-92.
The test system of test [6] is NCI-H226.
Test [7] has as its system UACC-62.
Test [8] relates to EKVX.
For test [9], the system named is UO-31.
The test system of test [10] is NCI-H522.
For test [11], the system named is HCT-116.
Test [12] relates to RXF 393.
Test [13] has as its system OVCAR-4.
The subject of test [14] is M14.
Test [15] deals with HCT-15.
The test system of test [16] is 786-0.
Test [17] deals with HOP-62.

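These data come from cells grown in 96-well plates and exposed to compound for 48 hours at five concentrations. Abbreviation: GI50, concentration required for 50% inhibition of growth.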 Active and inactive are the calls of the source. Rule as the data show it: active = GI50 up to about 1.1 µM and inactive = higher.

For `CCOC(=O)c1c2ccc(/C=C/c3ccccc3)ccc-2c(C(=O)OCC)c1N`, the GI50 in [1] is > 100 µM (inactive); in test [2], > 100 µM (inactive); in test [3], 36.7 µM (inactive); in [4], > 100 µM (inactive); in test [5] it was > 100 µM (inactive); in test [6], > 100 µM (inactive). For the same molecule, the GI50 in test [7] was 73.6 µM (inactive); in [8] it was > 100 µM (inactive); in test [9], > 100 µM (inactive); in test [10] it was > 100 µM (inactive); in [11] it was > 100 µM (inactive); in test [12], > 100 µM (inactive). Further, the GI50 was 34.1 µM (inactive) in test [13], > 100 µM (inactive) in test [14], > 100 µM in [15] and > 100 µM (inactive) in test [16].
Take `Cc1cc(C)c(C(=O)O)c(SSc2cc(C)cc(C)c2C(=O)O)c1`: the GI50 in test [1], in [2], in test [4], in test [17], in test [5] and in test [6] was > 100 µM (inactive) each time. Moreover, the GI50 in test [7], in test [8], in test [9], in test [10], in [12] and in test [13] was > 100 µM (inactive) each time. In addition, the GI50 in test [16] is > 100 µM (inactive).
As to `O=C(NCCCCCCNC(=O)NC1OCC(O)C(O)C1O)NC1OCC(O)C(O)C1O` (stereo not given), the GI50 was > 100 µM (inactive) in [1]; > 100 µM (inactive) in test [2]; 64.9 µM (inactive) in [3]; > 100 µM (inactive) in test [4]; > 100 µM (inactive) in test [17]; > 100 µM (inactive) in test [5]. Also, the GI50 in test [6], in test [7], in test [8], in [10], in test [11] and in test [12] was > 100 µM (inactive) throughout. In addition, the GI50 in test [13] is > 100 µM (inactive); in test [14] it was > 100 µM (inactive); in [15], > 100 µM; in [16], > 100 µM (inactive).
In the case of `CN(C)CCS/C(=N\c1ccccc1)n1cccc1`, the GI50 in test [1] is 32.4 µM (inactive); in test [2], 53.6 µM (inactive); in [3], 27.6 µM (inactive); in test [4], > 100 µM (inactive); in test [17] it was 25.7 µM (inactive); in test [5], 24 µM (inactive). In addition, the GI50 is 22.3 µM (inactive) in test [6]; 82.8 µM (inactive) in test [7]; 32.2 µM (inactive) in test [9]; 33.9 µM (inactive) in test [10]; > 100 µM (inactive) in [11]; 27.1 µM (inactive) in [12]. In addition, the GI50 in test [13] was > 100 µM (inactive); in [14] it was > 100 µM (inactive); in [15], 98.4 µM; in [16], > 100 µM (inactive).
On to `O=c1[nH]c(=O)n(C2CC(O)C(CO)O2)cc1OS(=O)(=O)C(F)(F)F` (stereo not given), for which the GI50 in test [1], in test [2], in test [3], in test [4], in test [17] and in test [5] was > 100 µM (inactive) throughout. The GI50 was > 100 µM (inactive) in [6]; 38.9 µM (inactive) in test [7]; > 100 µM (inactive) in test [8]; > 100 µM (inactive) in [10]; > 100 µM (inactive) in test [11]; > 100 µM (inactive) in [12]. Also, the GI50 in [13] was > 100 µM (inactive); in test [14], > 100 µM (inactive); in [15], > 100 µM; in test [16] it was > 100 µM (inactive).
`COc1ccc(/C=C2\N=C(c3ccccc3)N(Nc3nnc(NN4C(=O)/C(=C/c5ccc(OC)cc5)N=C4c4ccccc4)c4ccccc34)C2=O)cc1`: the GI50 was 81.8 µM (inactive) in [1]; 38.1 µM (inactive) in test [2]; 68.9 µM (inactive) in [3]; > 100 µM (inactive) in test [4]; 62.7 µM (inactive) in [17]; > 100 µM (inactive) in test [5]. Moreover, the GI50 in test [6] is 96.4 µM (inactive); in [7], 70.5 µM (inactive); in [8] it was > 100 µM (inactive); in test [10] it was 35.1 µM (inactive); in test [11], 94.4 µM (inactive); in [12], > 100 µM (inactive). Further, the GI50 in test [13] is 53.2 µM (inactive); in [14], > 100 µM (inactive); in test [15] it was 40.8 µM; in test [16] it was 56.9 µM (inactive).
In the case of `ClCCC[Si]12OCCN(CCO1)CCO2`, the GI50 in test [1], in test [2], in [3], in test [4], in test [5] and in test [6] was > 100 µM (inactive) each time. The GI50 in test [7], in test [8], in test [9], in test [10], in test [11] and in test [12] was > 100 µM (inactive) throughout. Also, in test [16], the GI50 is > 100 µM (inactive).
As to `N#Cc1ccc(Sc2nc3ccccc3[nH]2)cc1`, the GI50 in [1] is > 100 µM (inactive); in test [2], > 100 µM (inactive); in test [4], 79.6 µM (inactive); in [17] it was > 100 µM (inactive); in test [5], > 100 µM (inactive); in [6] it was 36.6 µM (inactive). The GI50 in test [7] is 41.7 µM (inactive); in [8], > 100 µM (inactive); in [9], > 100 µM (inactive); in test [10], > 100 µM (inactive); in test [12], > 100 µM (inactive); in test [13] it was > 100 µM (inactive). Also, the GI50 in test [16] was > 100 µM (inactive).
For the molecule `Cn1cnc(CCc2ccccc2)n1`, the GI50 in test [1], in test [2], in [3], in test [4], in test [17] and in [5] was > 100 µM (inactive) in each case. Also, the GI50 in [6], in test [7], in [9], in test [10], in test [11] and in test [12] was > 100 µM (inactive) in each case. The GI50 in test [13] is > 100 µM (inactive); in test [14], > 100 µM (inactive); in test [15], > 100 µM; in [16], > 100 µM (inactive).

For the origin of these results see ChEMBL document CHEMBL1201862, “PubChem BioAssay data set” (2004).
